Experimental findings from paper PMC10657467, “Mechanically-primed voltage-gated proton channels from angiosperm plants” (Nature Communications, 2023) are described below.

In general, IC50 refers to the concentration that gives 50% inhibition. High values mean lower potency, low ones higher potency.

Assay type in all cases: cell-based
The target in assay [1] is T1, SmHv1 (Selaginella moellendorffii, UniProt D8SZW5).
T1 construct: gene SELMODRAFT_128853; full-length channel (EFJ10096.1, 242 a.a.) expressed in Xenopus oocytes, after mechanical stimulus
T1 sequence (D8SZW5 1-242): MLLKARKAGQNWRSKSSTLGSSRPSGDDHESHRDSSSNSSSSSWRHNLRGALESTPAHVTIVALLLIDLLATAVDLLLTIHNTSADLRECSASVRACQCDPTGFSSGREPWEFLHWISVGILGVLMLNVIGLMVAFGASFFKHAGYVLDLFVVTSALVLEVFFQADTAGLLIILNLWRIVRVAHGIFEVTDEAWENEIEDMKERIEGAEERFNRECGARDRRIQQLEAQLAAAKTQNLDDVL
Description: inside-out patch-clamp of proton currents.

Assay [2] concerns the target T2, PsHv1 (Picea sitchensis, UniProt B8LLA1).
T2 construct: full-length channel (ABR16431.1, 260 a.a.) expressed in Xenopus oocytes
T2 sequence (B8LLA1 1-260): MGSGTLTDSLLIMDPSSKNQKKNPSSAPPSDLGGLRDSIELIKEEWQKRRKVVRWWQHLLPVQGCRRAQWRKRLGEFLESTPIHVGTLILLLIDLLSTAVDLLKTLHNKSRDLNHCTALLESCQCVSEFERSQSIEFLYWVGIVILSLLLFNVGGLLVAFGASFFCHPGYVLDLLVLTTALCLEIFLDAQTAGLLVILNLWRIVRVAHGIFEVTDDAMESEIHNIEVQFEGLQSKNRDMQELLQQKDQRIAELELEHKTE
Description: inside-out patch-clamp of proton currents, Hill fit.

Assay [3] addresses T3, AtHv1 (Arabidopsis thaliana, UniProt Q9SGX2).
T3 construct: gene At1g10800; full-length channel (NP_001321473.1, 236 a.a.) expressed in Xenopus oocytes, after mechanical stimulus
T3 sequence (Q9SGX2 1-236): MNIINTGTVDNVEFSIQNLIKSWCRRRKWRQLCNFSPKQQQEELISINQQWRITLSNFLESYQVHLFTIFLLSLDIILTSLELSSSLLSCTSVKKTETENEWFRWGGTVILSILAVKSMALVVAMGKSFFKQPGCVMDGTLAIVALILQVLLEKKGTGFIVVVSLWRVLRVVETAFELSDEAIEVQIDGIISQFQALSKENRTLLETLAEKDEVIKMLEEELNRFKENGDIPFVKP
Description: inside-out patch-clamp of proton currents.

As for `N=C(N)Nc1nc2ccccc2[nH]1` [2GBI, 2-guanidinobenzimidazole], the “inside-out patch-clamp of proton currents” value in assay [1] was “Despite some small differences in the extent of inhibition by 2GBI, AtHv1, SmHv1, and PsHv1 shared a low sensitivity”; in assay [3], “Despite some small differences in the extent of inhibition by 2GBI, AtHv1, SmHv1, and PsHv1 shared a low sensitivity”. Moreover, in assay [2], the IC50 was 372 ± 28 µM.

As to `N=C(N)Nc1nc2ccc(Cl)cc2[nH]1` [ClGBI, 5-chloro-2-guanidinobenzimidazole], the “inside-out patch-clamp of proton currents” value is “we tested the effects of 2GBI and ClGBI on AtHv1- and SmHv1-mediated currents post-mechanical stimulation” in assay [1]; “we tested the effects of 2GBI and ClGBI on AtHv1- and SmHv1-mediated currents post-mechanical stimulation” in assay [3]. Moreover, in assay [2], half-maximal inhibition (IC50) was put at 39 ± 8 µM.
